What follows are molecules tested against T1, wild-type human ALK (cytoplasmic domain, amino acids 1058-1620, N-terminal GST fusion) (Homo sapiens, UniProt Q9UM73) (assay: ALK Inhibition in Enzyme Assay (Lance TR-FRET kinase assay)).
T1 construct: The cytoplasmic domain (amino acids 1058-1620) of wild-type human ALK; GST (N); made in house; host or cells: SF9 insect cells
Format: biochemical
How it was run: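 Purified enzyme phosphorylated a biotinylated peptide substrate for 90 minutes at room temperature. Reactions were stopped with 20 mM EDTA in 50 mM Tris (pH 7.5), 100 mM NaCl, 0.05% BSA, 0.1% Tween-20. Phosphopeptide was detected by TR-FRET with SA-APC and Eu-W1024 anti-phosphotyrosine antibody PT66, excitation 320 nm.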

T1 sequence (Q9UM73 1058-1620): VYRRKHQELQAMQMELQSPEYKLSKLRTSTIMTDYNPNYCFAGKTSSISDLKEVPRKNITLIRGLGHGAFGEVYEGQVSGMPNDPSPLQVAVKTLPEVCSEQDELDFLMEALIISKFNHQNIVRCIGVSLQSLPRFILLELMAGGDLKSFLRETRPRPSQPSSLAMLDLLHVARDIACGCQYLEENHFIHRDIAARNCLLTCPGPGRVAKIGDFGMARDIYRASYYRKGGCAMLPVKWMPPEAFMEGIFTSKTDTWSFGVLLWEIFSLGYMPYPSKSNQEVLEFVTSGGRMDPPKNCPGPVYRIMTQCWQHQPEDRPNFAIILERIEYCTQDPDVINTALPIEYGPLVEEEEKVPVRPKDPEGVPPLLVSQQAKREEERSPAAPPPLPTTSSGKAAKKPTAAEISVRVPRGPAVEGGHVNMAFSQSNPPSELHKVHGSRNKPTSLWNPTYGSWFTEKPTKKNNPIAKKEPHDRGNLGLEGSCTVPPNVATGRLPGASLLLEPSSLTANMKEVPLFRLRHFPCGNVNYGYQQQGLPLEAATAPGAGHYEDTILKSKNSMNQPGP

IC50 | Structure (SMILES)
< 0.05 µM | CC(C)NC(=O)[C@H]1CC[C@@H](n2/c(=N/C(=O)c3ccc(F)cc3)[nH]c3cnc(OCCCN4CCOCC4)cc32)CC1 [Example 165, (E)-4-Fluoro-N-(1-(cis-4-(isopropylcarbamoyl)cyclohexyl)-6-(3-morpholinopropoxy)-1H-imidazo[4,5-c]pyridin-2(3H)-ylidene)benzamide]
< 0.05 µM | CC(C)NC(=O)[C@H]1CC[C@@H](n2/c(=N/C(=O)c3ccc(F)cc3)[nH]c3cnccc32)CC1 [Example 156, (E)-4-Fluoro-N-(1-(cis-4-(isopropylcarbamoyl)cyclohexyl)-1H-imidazo[4,5-c]pyridin-2(3H)-ylidene)benzamide]
0.05 to 0.1 µM | CC(C)NC(=O)[C@H]1CC[C@@H](n2/c(=N/C(=O)N3CCCC3)[nH]c3cnc(OCCN4CCCCC4)cc32)CC1 [Example 134, (E)-N-(1-(cis-4-(Isopropylcarbamoyl)cyclohexyl)-6-(2-(piperidin-1-yl)ethoxy)-1H-imidazo[4,5-c]pyridin-2(3H)-ylidene)pyrrolidine-1-carboxamide]
0.1 to 1 µM | CC(C)(O)C1CCN(Cc2ccc3[nH]/c(=N\C(=O)c4ccc(F)cc4)n([C@H]4CC[C@@H](C(=O)O)CC4)c3c2)CC1 [Example 210, cis-4-((E)-2-(4-Fluorobenzoylimino)-6-((4-(2-hydroxypropan-2-yl)piperidin-1-yl)methyl)-2,3-dihydro-1H-benzo[d]imidazol-1-yl)cyclohexanecarboxylic acid]
5 to 10 µM | CC(C)NC(=O)[C@H]1CC[C@@H](n2/c(=N/C(=O)C3CCCCC3)[nH]c3cnc(OCCN4CCCCC4)cc32)CC1 [Example 112, cis-4-((E)-2-(Cyclohexanecarbonylimino)-6-(2-(piperidin-1-yl)ethoxy)-2,3-dihydro-1H-imidazo[4,5-c]pyridin-1-yl)-N-isopropylcyclohexanecarboxamide]
< 0.05 µM | N#Cc1ccc(C(=O)/N=c2\[nH]c3cnc(OCCN4CCCCC4)cc3n2[C@H]2CC[C@@H](C(=O)N3CCNCC3)CC2)cc1 [Example 123, (E)-4-Cyano-N-(1-(cis-4-(piperazine-1-carbonyl)cyclohexyl)-6-(2-(piperidin-1-yl)ethoxy)-1H-imidazo[4,5-c]pyridin-2(3H)-ylidene)benzamide]
< 0.05 µM | CCOC(=O)[C@H]1CC[C@@H](n2/c(=N/C(=O)c3cccc(F)c3)[nH]c3cnc(OCCN4CCC(C(C)(C)O)CC4)cc32)CC1 [Example 78, cis-Ethyl 4-((E)-2-(3-fluorobenzoylimino)-6-(2-(4-(2-hydroxypropan-2-yl)piperidin-1-yl)ethoxy)-2,3-dihydro-1H-imidazo[4,5-c]pyridin-1-yl)cyclohexanecarboxylate]
< 0.05 µM | C=CCNS(=O)(=O)c1cccc(C(=O)/N=c2\[nH]c3ccc(CN4CCC(C(C)(C)O)CC4)cc3n2[C@H]2CC[C@@H](C(N)=O)CC2)c1 [Example 232, (E)-3-(N-Allylsulfamoyl)-N-(1-(cis-4-carbamoylcyclohexyl)-6-((4-(2-hydroxypropan-2-yl)piperidin-1-yl)methyl)-1H-benzo[d]imidazol-2(3H)-ylidene)benzamide]
1 to 5 µM | CC(C)NC(=O)[C@H]1CC[C@@H](n2/c(=N/C(=O)c3ccccn3)[nH]c3cnc(OCCN4CCCCC4)cc32)CC1 [Example 110, (E)-N-(1-(cis-4-(Isopropylcarbamoyl)cyclohexyl)-6-(2-(piperidin-1-yl)ethoxy)-1H-imidazo[4,5-c]pyridin-2(3H)-ylidene)picolinamide]
0.1 to 1 µM | CNS(=O)(=O)N1CCC(n2/c(=N/C(=O)c3ccccc3)[nH]c3cnc(OCCN4CCCCC4)cc32)CC1 [Example 67, (E)-N-(1-(1-(N-Methylsulfamoyl)piperidin-4-yl)-6-(2-(piperidin-1-yl)ethoxy)-1H-imidazo[4,5-c]pyridin-2(3H)-ylidene)benzamide]
< 0.05 µM | CC(C)NC(=O)[C@H]1CC[C@@H](n2/c(=N/C(=O)c3ccc(C#N)cc3)[nH]c3cnc(OCCO)cc32)CC1 [Example 126, (E)-4-Cyano-N-(6-(2-hydroxyethoxy)-1-(cis-4-(isopropylcarbamoyl)cyclohexyl)-1H-imidazo[4,5-c]pyridin-2(3H)-ylidene)benzamide]
< 0.05 µM | C=CCNS(=O)(=O)c1cccc(C(=O)Nc2nc3ccc(CN4CCCCC4)cc3n2C23CC4CC(CC(C4)C2)C3)c1 [Example 18, 3-(N-Allylsulfamoyl)-N-(1-adamantyl-6-(piperidin-1-ylmethyl)-1H-benzo[d]imidazol-2-yl)benzamide]
0.05 to 0.1 µM | COc1cccc(C(=O)/N=c2\[nH]c3cnc(OCCN4CCCCC4)cc3n2[C@H]2CC[C@@H](C(=O)NC(C)C)CC2)c1 [Example 116, (E)-N-(1-(cis-4-(Isopropylcarbamoyl)cyclohexyl)-6-(2-(piperidin-1-yl)ethoxy)-1H-imidazo[4,5-c]pyridin-2(3H)-ylidene)-3-methoxybenzamide]
1 to 5 µM | NC(=O)[C@H]1CC[C@H](n2/c(=N/C(=O)c3ccc(F)cc3)[nH]c3cnc(OCCN4CCCCC4)cc32)CC1 [Example 248, (E)-N-(1-(trans-4-Carbamoylcyclohexyl)-6-(2-(piperidin-1-yl)ethoxy)-1H-imidazo[4,5-c]pyridin-2(3H)-ylidene)-4-fluorobenzamide]
1 to 5 µM | CNc1ccc(C(=O)/N=c2\[nH]c3cnc(OCCN4CCCCC4)cc3n2[C@H]2CC[C@@H](C(=O)NC(C)C)CC2)cc1 [Example 105, (E)-N-(1-(cis-4-(Isopropylcarbamoyl)cyclohexyl)-6-(2-(piperidin-1-yl)ethoxy)-1H-imidazo[4,5-c]pyridin-2(3H)-ylidene)-4-(methylamino)benzamide]
< 0.05 µM | CC(C)NC(=O)[C@H]1CC[C@@H](n2/c(=N/C(=O)c3ccc(F)c(Cl)c3)[nH]c3cnc(OCCN4CCCCC4)cc32)CC1 [Example 101, (E)-3-Chloro-4-fluoro-N-(1-(cis-4-(isopropylcarbamoyl)cyclohexyl)-6-(2-(piperidin-1-yl)ethoxy)-1H-imidazo[4,5-c]pyridin-2(3H)-ylidene)benzamide]
< 0.05 µM | CC(C)NC(=O)[C@H]1CC[C@@H](n2/c(=N/C(=O)c3cc(F)cc(F)c3)[nH]c3cnc(OCCN4CCCCC4)cc32)CC1 [Example 98, (E)-3,5-Difluoro-N-(1-(cis-4-(isopropylcarbamoyl)cyclohexyl)-6-(2-(piperidin-1-yl)ethoxy)-1H-imidazo[4,5-c]pyridin-2(3H)-ylidene)benzamide]
0.1 to 1 µM | C=CCNS(=O)(=O)c1cccc(C(=O)/N=c2\[nH]c3cnc(OCCN4CCCCC4)cc3n2[C@H]2CC[C@@H](C(=O)NC(C)C)CC2)c1 [Example 99, (E)-3-(N-Allylsulfamoyl)-N-(1-(cis-4-(isopropylcarbamoyl)cyclohexyl)-6-(2-(piperidin-1-yl)ethoxy)-1H-imidazo[4,5-c]pyridin-2(3H)-ylidene)benzamide]
< 0.05 µM | CONC(=O)[C@H]1CC[C@@H](n2/c(=N/C(=O)c3ccc(F)cc3)[nH]c3ccc(CN4CCOCC4)cc32)CC1 [Example 208, (E)-4-Fluoro-N-(1-(cis-4-(methoxycarbamoyl)cyclohexyl)-6-(morpholinomethyl)-1H-benzo[d]imidazol-2(3H)-ylidene)benzamide]
5 to 10 µM | CC(C)NC(=O)[C@H]1CC[C@@H](n2c(N)nc3cnc(OCCN4CCCCC4)cc32)CC1 [Example 86, cis-4-(2-Amino-6-(2-(piperidin-1-yl)ethoxy)-1H-imidazo[4,5-c]pyridin-1-yl)-N-isopropylcyclohexanecarboxamide]
0.1 to 1 µM | CC(C)NC(=O)[C@H]1CC[C@@H](n2/c(=N/C(=O)N3CCOCC3)[nH]c3cnc(OCCN4CCCCC4)cc32)CC1 [Example 133, (E)-N-(1-(cis-4-(Isopropylcarbamoyl)cyclohexyl)-6-(2-(piperidin-1-yl)ethoxy)-1H-imidazo[4,5-c]pyridin-2(3H)-ylidene)morpholine-4-carboxamide]
0.1 to 1 µM | C=CCNS(=O)(=O)c1cc(C(=O)Nc2nc3ccc(CO)cc3n2[C@H]2CC[C@@H](C(=O)OC)CC2)ccc1F [Example 27, cis-Methyl 4-(2-(3-(N-allylsulfamoyl)-4-fluorobenzamido)-6-(hydroxymethyl)-1H-benzo[d]imidazol-1-yl)cyclohexanecarboxylate]
< 0.05 µM | CC(C)NC(=O)[C@H]1CC[C@@H](n2/c(=N/C(=O)c3ccc(F)cc3)[nH]c3cnc(NCCN4CCOCC4)cc32)CC1 [Example 163, (E)-4-Fluoro-N-(1-(cis-4-(isopropylcarbamoyl)cyclohexyl)-6-(2-morpholinoethylamino)-1H-imidazo[4,5-c]pyridin-2(3H)-ylidene)benzamide]
< 0.05 µM | CC(C)NC(=O)[C@H]1CC[C@@H](n2/c(=N/C(=O)c3ccc(Br)cc3)[nH]c3cnc(OCCN4CCCCC4)cc32)CC1 [Example 95, (E)-4-Bromo-N-(1-(cis-4-(isopropylcarbamoyl)cyclohexyl)-6-(2-(piperidin-1-yl)ethoxy)-1H-imidazo[4,5-c]pyridin-2(3H)-ylidene)benzamide]
0.1 to 1 µM | CC(C)C(=O)N[C@H]1CC[C@@H](n2/c(=N/C(=O)c3cccc(F)c3)[nH]c3ccc(CN4CCC(C(C)(C)O)CC4)cc32)CC1 [Example 228, (E)-3-Fluoro-N-(6-((4-(2-hydroxypropan-2-yl)piperidin-1-yl)methyl)-1-(cis-4-isobutyramidocyclohexyl)-1H-benzo[d]imidazol-2(3H)-ylidene)benzamide]
< 0.05 µM | CC(C)NC(=O)[C@H]1CC[C@@H](n2/c(=N/C(=O)c3cccc(C(F)(F)F)c3)[nH]c3cnc(OCCN4CCCCC4)cc32)CC1 [Example 92, (E)-N-(1-(cis-4-(Isopropylcarbamoyl)cyclohexyl)-6-(2-(piperidin-1-yl)ethoxy)-1H-imidazo[4,5-c]pyridin-2(3H)-ylidene)-3-(trifluoromethyl)benzamide]
